The CheMixHub viscosity set
Values joined by “and” are separate entries in the source; they are usually repeats but may differ in a detail not shown here. Equal values may be shown once.

Assay: xn = mol fraction of the nth substance listed

CC(N)=O + O
101 kPa
Conditions | viscosity [mPa·s]
293.15 K, x1 = 0.0438 | 1.015
293.15 K, x1 = 0.0791 | 1.178
293.15 K, x1 = 0.1282 | 1.416
295.65 K, x1 = 0.02282 | 1.222
295.65 K, x1 = 0.03616 | 1.155
295.65 K, x1 = 0.03629 | 1.149
295.65 K, x1 = 0.0429 | 1.262
295.65 K, x1 = 0.07191 | 1.716
295.65 K, x1 = 0.07575 | 1.47
298.15 K, x1 = 0.0024 | 0.89
298.15 K, x1 = 0.0185 | 0.991
298.15 K, x1 = 0.06152 | 1.232
298.15 K, x1 = 0.09656 | 1.458
298.15 K, x1 = 0.1531 | 1.875
298.15 K, x1 = 0.4073 | 4.442
303 K, x1 = 0.0363 | 1.149
303 K, x1 = 0.0438 | 1.015
303 K, x1 = 0.0791 | 1.178
303 K, x1 = 0.0928 | 1.416

C[NH+](C)CCO.O=C([O-])CC(=O)O + O
101 kPa, x2 = 0.88
Conditions | viscosity [mPa·s]
298 K | 9.67
313 K | 6.09

O=C([O-])CC(O)(CC(=O)[O-])C(=O)[O-].[Li+].[Li+].[Li+] + O
viscosity [mPa·s], 101 kPa
Conditions | 298.15 K | 308.15 K | 318.15 K
x1 = 0.004 | 1.118 | 0.9013 | 0.7487
x1 = 0.007 | 1.39 | 1.112 | 0.9146
x1 = 0.01 | 1.784 | 1.415 | 1.155

O=C[C@H](O)[C@@H](O)[C@@H](O)CO + O
viscosity, 101 kPa
Conditions | 293.15 K | 298.15 K | 303.15 K | 308.15 K | 313.15 K | 318.15 K
x1 = 0.0031 | 1.059 mPa·s | – | 0.8425 mPa·s | 0.7555 mPa·s | 0.6857 mPa·s | 0.6277 mPa·s
x1 = 0.006 | 1.122 mPa·s and 1.122 mPa·s (2×) | 0.9982 mPa·s and 0.9982 mPa·s (2×) | 0.8927 mPa·s and 0.8927 mPa·s (2×) | 0.7947 mPa·s and 0.7947 mPa·s and 0.7947 mPa·s | 0.7187 mPa·s and 0.7187 mPa·s (2×) | 0.6585 mPa·s and 0.6585 mPa·s and 0.6585 mPa·s
x1 = 0.0063 | 1.122 mPa·s | 0.9982 mPa·s | 0.8927 mPa·s | 0.7947 mPa·s | 0.7187 mPa·s | 0.6585 mPa·s
x1 = 0.013 | 1.232 mPa·s and 1.232 mPa·s (2×) | – | 0.9886 mPa·s and 0.9886 mPa·s (2×) | 0.8863 mPa·s and 0.8863 mPa·s (2×) | 0.7996 mPa·s and 0.7996 mPa·s (2×) | 0.7229 mPa·s and 0.7229 mPa·s and 0.7229 mPa·s

O=S(=O)(O)CC(O)CN1CCOCC1 (stereo not drawn) + O
viscosity [mPa·s], 101.3 kPa
Conditions | x1 = 0.00371 | x1 = 0.007201 | x1 = 0.009661 | x1 = 0.01079 | x1 = 0.01403 | x1 = 0.01784
298.15 K | 0.942 | 1.033 | 1.078 | 1.117 | 1.197 | 1.303
308.15 K | 0.761 | 0.833 | 0.871 | 0.901 | 0.966 | 1.051
318.15 K | 0.631 | 0.691 | 0.721 | 0.746 | 0.798 | 0.866

O=S(=O)([O-])[O-].[Na+].[Na+] + O
Conditions | viscosity [mPa·s]
293.15 K, 100 kPa, x1 = 0.003594 | 1.085
293.15 K, 100 kPa, x1 = 0.004923 | 1.125
293.15 K, 100 kPa, x1 = 0.01069 | 1.29
293.15 K, 100 kPa, x1 = 0.01596 | 1.483
293.15 K, 100 kPa, x1 = 0.02116 | 1.67
293.15 K, 100 kPa, x1 = 0.02795 | 1.939
293.15 K, 101.3 kPa, x1 = 0.0009 | 1.025
293.15 K, 101.3 kPa, x1 = 0.0018 | 1.046
293.15 K, 101.3 kPa, x1 = 0.00893 | 1.236
293.15 K, 101.3 kPa, x1 = 0.0125 | 1.349
293.15 K, 101.3 kPa, x1 = 0.0177 | 1.548
293.15 K, 101.3 kPa, x1 = 0.02116 | 1.701
298.15 K, 100 kPa, x1 = 6e-05 | 0.8907
298.15 K, 100 kPa, x1 = 0.00013 | 0.8915
298.15 K, 100 kPa, x1 = 0.00025 | 0.8935
298.15 K, 100 kPa, x1 = 0.00038 | 0.8955
298.15 K, 100 kPa, x1 = 0.003594 | 0.967
298.15 K, 100 kPa, x1 = 0.01069 | 1.148
298.15 K, 100 kPa, x1 = 0.01596 | 1.315
298.15 K, 100 kPa, x1 = 0.02116 | 1.508
298.15 K, 100 kPa, x1 = 0.02795 | 1.766
298.15 K, 101 kPa, x1 = 0.00893 | 1.099
298.15 K, 101 kPa, x1 = 0.0168 | 1.349
298.15 K, 101 kPa, x1 = 0.0222 | 1.556
298.15 K, 101 kPa, x1 = 0.03141 | 2.023
298.15 K, 101.3 kPa, x1 = 0.0009 | 0.9113
298.15 K, 101.3 kPa, x1 = 0.0018 | 0.9298
298.15 K, 101.3 kPa, x1 = 0.00893 | 1.1
298.15 K, 101.3 kPa, x1 = 0.0125 | 1.201
298.15 K, 101.3 kPa, x1 = 0.0177 | 1.374
298.15 K, 101.3 kPa, x1 = 0.02116 | 1.505
298.15 K, 101.3 kPa, x1 = 0.02631 | 1.72
298.15 K, 101.33 kPa, x1 = 0.03319 | 1.746
303.15 K, 100 kPa, x1 = 0.003594 | 0.868
303.15 K, 100 kPa, x1 = 0.01069 | 1.025
303.15 K, 100 kPa, x1 = 0.01596 | 1.171
303.15 K, 100 kPa, x1 = 0.02116 | 1.343
303.15 K, 100 kPa, x1 = 0.02795 | 1.584
303.15 K, 101.3 kPa, x1 = 0.0009 | 0.8166
303.15 K, 101.3 kPa, x1 = 0.0018 | 0.8339
303.15 K, 101.3 kPa, x1 = 0.00893 | 0.9866
303.15 K, 101.3 kPa, x1 = 0.0125 | 1.076
303.15 K, 101.3 kPa, x1 = 0.0177 | 1.229
303.15 K, 101.3 kPa, x1 = 0.02116 | 1.345
303.15 K, 101.3 kPa, x1 = 0.02631 | 1.531
308.15 K, 100 kPa, x1 = 6e-05 | 0.7195
308.15 K, 100 kPa, x1 = 0.00013 | 0.7205
308.15 K, 100 kPa, x1 = 0.00025 | 0.722
308.15 K, 100 kPa, x1 = 0.00038 | 0.724
308.15 K, 100 kPa, x1 = 0.00128 | 0.7637
308.15 K, 100 kPa, x1 = 0.003594 | 0.787
308.15 K, 100 kPa, x1 = 0.01069 | 0.933
308.15 K, 100 kPa, x1 = 0.01596 | 1.053
308.15 K, 100 kPa, x1 = 0.02116 | 1.205
308.15 K, 100 kPa, x1 = 0.02795 | 1.419
308.15 K, 101.3 kPa, x1 = 0.0009 | 0.7374
308.15 K, 101.3 kPa, x1 = 0.0018 | 0.7529
308.15 K, 101.3 kPa, x1 = 0.00893 | 0.8914
308.15 K, 101.3 kPa, x1 = 0.0125 | 0.9716
308.15 K, 101.3 kPa, x1 = 0.0177 | 1.107
308.15 K, 101.3 kPa, x1 = 0.02116 | 1.21
308.15 K, 101.3 kPa, x1 = 0.02631 | 1.373
308.65 K, 100 kPa, x1 = 0.004923 | 0.803
318.15 K, 101.3 kPa, x1 = 0.0009 | 0.6114
318.15 K, 101.3 kPa, x1 = 0.0018 | 0.624
318.15 K, 101.3 kPa, x1 = 0.00893 | 0.7405
318.15 K, 101.3 kPa, x1 = 0.0125 | 0.8058
318.15 K, 101.3 kPa, x1 = 0.0177 | 0.916
318.15 K, 101.3 kPa, x1 = 0.02116 | 0.9978
318.15 K, 101.3 kPa, x1 = 0.02631 | 1.127
323.15 K, 101 kPa, x1 = 0.00893 | 0.676
323.15 K, 101 kPa, x1 = 0.0168 | 0.819
323.15 K, 101.33 kPa, x1 = 0.05655 | 1.545
